From US20220251109A1, “OXAAZAQUINAZOLINE-7(8H)-KETONE COMPOUND, PREPARATION METHOD THEREFOR AND PHARMACEUTICAL APPLICATION THEREOF” (GENFLEET THERAPEUTICS (SHANGHAI) INC., priority 2019, published 2022)
Like-named read-outs stand apart in the source and are kept apart here.

Key:
Assay type in all cases: cell-based, human
[1] = system: NCI-H358 cells (Kras G12C mutation); test: Cell proliferation inhibition experiment, 3D model, CellTiter-Glo (NCI-H358); settings: NCI-H358, 3D sphere plate, 5 days, 2% FBS
In short: (§1)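 NCI-H358 (800 cells/well) and A549 (400 cells/well) were grown as overnight 3D spheroids in 2% FBS medium, then exposed 5 days to 3.16-fold compound dilutions (0.1% DMSO). Viability was read by CellTiter-Glo luminescence; IC50 came from a four-parameter fit of inhibition normalised to DMSO and medium blanks.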

[2] = system: A549 cells (Kras G12S mutation); test: Cell proliferation inhibition experiment, 3D model, CellTiter-Glo (A549); settings: A549, 3D sphere plate, 5 days, 2% FBS
In short: as §1

[3] = system: p-ERK in MIA PaCa2 cells (Kras G12C mutation); test: Cell p-ERK detection experiment (HTRF) in MIA PaCa2 cells; settings: compound 2 hours
Experimental: MIA PaCa2 was a human pancreatic cancer cell line with Kras G12C mutation, cultured in 10% FBS+2.5% Horse serum DMEM medium. The cells in the logarithmic growth phase were taken, digested with enzyme EDTA, collected, counted and 2.5E4 cells were seeded in a 96-well cell culture plate, cultured overnight. DMSO was used to prepare 1000× compound 3.16-fold gradient concentration stock solution, and medium was used to dilute 200-fold to 5× compound stock solution. On the second day after cell seeding, 5× compound stock solution was added to each cell culture well, the final concentration was 1×, and DMSO content was 0.1%. DMSO was used as an experimental control (control). After the compound was added and cultured for two hours, the remaining medium was removed. 50 ul cell lysis buffer was added to each well, mixed and incubated for 30 minutes, then 16 ul of the mixture was transferred to a 96-well plate with a non-transparent white bottom, and 16 ul cell lysis buffer was added to blank wells. After the completion of the transfer, 4 ul p-ERK HTRF antibody mixture was added to each well, incubated for 4 hours and the fluorescence value was read. The compound inhibition rate IR (%)=(RLU control-RLU compound)/(RLU control-RLU blank)×100% was calculated, Prism 8 four-parameter method was used to fit the compound's gradient dilution concentration and the corresponding cell proliferation inhibition rate, and the IC50 value was calculate.

[4] = system: MIA PaCa-2 cells (Kras G12C mutation); test: Cell proliferation inhibition experiment, 3D model, CellTiter-Glo (MIA PaCa-2); settings: MIA PaCa-2, 3D sphere plate, 5 days, read-out: MIA-PaCa2 IC50
In short: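 3D spheroid model: 200 MIA PaCa-2 cells per well cultured overnight, then treated with a 3.16-fold compound dilution series (0.1% DMSO) for 5 days. Viability read by CellTiter-Glo luminescence. Inhibition rate normalised to DMSO and medium-blank controls; IC50 from four-parameter fit.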

[5] = Homo sapiens, MIA PaCa-2, 120 h

IC50 ([1]; Homo sapiens, NCI-H358, 120 h) [nM]	IC50 ([2]; Homo sapiens, A549, 120 h) [nM]	IC50 ([3]; Homo sapiens, MIA PaCa-2, 2 h) [nM]	IC50 [4, 5] [nM]	IC50 [1] [nM]	IC50 [2] [nM]	IC50 [3] [nM]	IC50 [4] [nM]	SMILES
17	27700	193	85					C=CC(=O)N1CCN2c3nc(=O)n(-c4c(C#N)cnn4C(C)(C)C)c4nc(-c5c(O)cccc5F)c(Cl)c(c34)OC[C@H]2C1 [Compound Z120]
9	> 10000	182	34					C=CC(=O)N1CCN2c3nc(=O)n(-c4c(C)ccnc4C(C)C)c4nc(-c5ccc(Cl)cc5F)c(Cl)c(c34)OC[C@@H]2C1 [Compound Z65]
1	> 10000	50	8					C=CC(=O)N1CCN2c3nc(=O)n(-c4c(C)ccnc4C(C)C)c4nc(-c5cccc(Cl)c5F)c(Cl)c(c34)OC[C@@H]2C1 [Compound Z61]
5	18700	31	21					C=CC(=O)N1CCN2c3nc(=O)n(-c4c(C)nc(OC)nc4C(C)C)c4nc(-c5c(O)cccc5F)c(F)c(c34)OC[C@H]2C1 [Compound Z115]
3	8890	26	26					C=CC(=O)N1CCN2c3nc(=O)n(-c4c(C)nc(OC)nc4C(C)C)c4nc(-c5ccccc5F)c(Cl)c(c34)OC[C@H]2C1 [Compound Z116]
3	> 10000	25	2					C=CC(=O)N1CCN2c3nc(=O)n(-c4c(C(C)C)ccnc4C)c4nc(-c5c(O)cccc5F)c(F)c(c34)OC[C@H]2C1 [Compound Z92]
3	> 10000	21	6					C=CC(=O)N1CCN2c3nc(=O)n(-c4c(C)ccnc4C(C)C)c4nc(-c5c(F)cccc5Cl)c(Cl)c(c34)OC[C@@H]2C1 [Compound Z67]
2	> 10000	7	2					C=CC(=O)N1CCN2c3nc(=O)n(-c4c(C5CC5)ncnc4C4CC4)c4nc(-c5c(O)cccc5F)c(Cl)c(c34)OC[C@H]2C1 [Compound Z94]
	> 10000		3	2		22		C=CC(=O)N1CCN2c3nc(=O)n(-c4c(C)ccnc4C(C)C)c4nc(-c5c(O)cccc5F)c(F)c(c34)OC[C@H]2C1 [Compound Z73]
4	14700	43	11					C=CC(=O)N1CCN2c3nc(=O)n(-c4c(OC)ncnc4C(C)C)c4nc(-c5ccccc5F)c(Cl)c(c34)OC[C@H]2C1 [Compound Z110]
12	7900	59	113					C=CC(=O)N1CCN2c3nc(=O)n(-c4c(C)c(Cl)nn4C(C)C)c4nc(-c5ccccc5F)c(Cl)c(c34)OC[C@H]2C1 [Compound Z119]
7	> 30000	101	11					C=CC(=O)N1CCN2c3nc(=O)n(-c4c(CO)ccnc4C(C)C)c4nc(-c5ccccc5F)c(Cl)c(c34)OC[C@H]2C1 [Compound Z122]
1	> 10000	14	3					C=CC(=O)N1CCN2c3nc(=O)n(-c4c(C)ccnc4C(C)C)c4nc(-c5ccccc5Cl)c(Cl)c(c34)OC[C@@H]2C1 [Compound Z58]
3	> 10000	39	7					C=CC(=O)N1CCN2c3nc(=O)n(-c4c(C)ccnc4C(C)C)c4nc(-c5ccccc5C(F)(F)F)c(Cl)c(c34)OC[C@@H]2C1 [Compound Z66]
9	> 30000	49	17					C=CC(=O)N1CCN2c3nc(=O)n(-c4c(C)ncnc4C4CC4)c4nc(-c5c(O)cccc5F)c(F)c(c34)OC[C@H]2C1 [Compound Z108]
1	26800	7	1					C=CC(=O)N1CCN2c3nc(=O)n(-c4c(C(C)C)ncnc4C(C)C)c4nc(-c5c(O)cccc5F)c(Cl)c(c34)OC[C@H]2C1 [Compound Z97]
8	4630	39	74					C=CC(=O)N1CCN2c3nc(=O)n(-c4c(Cl)cncc4C(C)C)c4nc(-c5ccccc5F)c(Cl)c(c34)OC[C@H]2C1 [Compound Z114]
13	> 10000	101	24					C=CC(=O)N1CCN2c3nc(=O)n(-c4c(C)ccnc4C(C)C)c4nc(-c5c(C)ccc6[nH]ncc56)c(Cl)c(c34)OC[C@H]2C1 [Compound Z86]

More lines, now with the values behind:

SMILES	IC50 ([1]; Homo sapiens, NCI-H358, 120 h) [nM]	IC50 ([2]; Homo sapiens, A549, 120 h) [nM]	IC50 ([3]; Homo sapiens, MIA PaCa-2, 2 h) [nM]	IC50 [4, 5] [nM]	IC50 [1] [nM]	IC50 [2] [nM]	IC50 [3] [nM]	IC50 [4] [nM]
C=CC(=O)N1CCN2c3nc(=O)n(-c4c(C)ncnc4C(C)C)c4nc(-c5ccccc5F)c(Cl)c(c34)OC[C@H]2C1 (single isomer, unassigned) [Compound Z95-2]				1	1	> 10000	5	
C=CC(=O)N1CCN2c3nc(=O)n(-c4nccnc4C(C)C)c4nc(-c5ccccc5F)c(Cl)c(c34)OC[C@H]2C1 [Compound Z104-1]		11300		12	8		14	
C=CC(=O)N1CCN2c3nc(=O)n(-c4c(C)ccnc4C(C)C)c4nc(-c5c(O)cccc5F)c(F)c(c34)OC[C@H]2C1 (single isomer, unassigned) [Compound Z73-2]					2	> 10000	20	5
C=CC(=O)N1CCN2c3nc(=O)n(-c4c(C)ccnc4C4CC4)c4nc(-c5c(O)cccc5F)c(F)c(c34)OC[C@H]2C1 (single isomer, unassigned) [Compound Z112-1]		> 30000			3		24	4
C=CC(=O)N1CCN2c3nc(=O)n(-c4c(C)ccnc4C(C)C)c4nc(-c5ccccc5F)c(Cl)c(c34)OC[C@@H]2C1 (single isomer, unassigned) [Compound Z46-2]			20	8	3	5480		
C=CC(=O)N1CCN2c3nc(=O)n(-c4c(C)ccnc4C(C)C)c4nc(-c5cccc(F)c5F)c(Cl)c(c34)OC[C@H]2C1 (single isomer, unassigned) [Compound Z77-2]				2	1	> 10000	8	
C=CC(=O)N1CCN2c3nc(=O)n(-c4c(C)ccnc4C(C)C)c4nc(-c5cccc(F)c5F)c(Cl)c(c34)OC[C@@H]2C1 (single isomer, unassigned) [Compound Z47-1]					1	> 10000	15	3
C=CC(=O)N1CCN2c3nc(=O)n(-c4c(C)ccnc4C(C)C)c4nc(-c5c(O)cccc5F)c(Cl)c(c34)OC[C@H]2C1 (single isomer, unassigned) [Compound Z23-1]		> 10000	13	3	1			
C=CC(=O)N1CCN2c3nc(=O)n(-c4c(C)ccnc4C(C)C)c4nc(-c5c(O)cccc5F)c(Cl)c(c34)OC[C@@H]2C1 (single isomer, unassigned) [Compound Z24-2]					3	> 10000	25	8
C=CC(=O)N1CCN2c3nc(=O)n(-c4c(C)ccnc4C4CC4)c4nc(-c5c(O)cccc5F)c(F)c(c34)OC[C@H]2C1 (single isomer, unassigned) [Compound Z112-2]					94	> 30000	502	126
C=CC(=O)N1CCN2c3nc(=O)n(-c4c(C)ccnc4C(C)C)c4nc(-c5cccc(Cl)c5F)c(Cl)c(c34)OC[C@H]2C1 (single isomer, unassigned) [Compound Z91-2]				15	3	> 30000	18	
C=CC(=O)N1CCN2c3nc(=O)n(-c4c(C#N)cnn4C(C)(C)C)c4nc(-c5ccccc5F)c(Cl)c(c34)OC[C@H]2C1 (single isomer, unassigned) [Compound Z109-1]		8480	18	12	5			
C=CC(=O)N1CCN2c3nc(=O)n(-c4c(C)ccnc4C(C)C)c4nc(-c5ccc(F)cc5F)c(Cl)c(c34)OC[C@@H]2C1 (single isomer, unassigned) [Compound Z49-1]					6	> 10000	64	10
